Our source for the melting point and inhibition values is US8263606B2 (Xenon Pharmaceuticals Inc., priority 2008, dated 2012).

The target of one data set is CYP3A4 (Homo sapiens, UniProt P08684). The data set is described as follows: Cytochrome P450 (CYP450) Inhibition Assay, CYP3A4 (Vivid fluorescence, BOMCC substrate). As to conditions: human, P450 Baculosomes (recombinant CYP3A4), probe BOMCC (Vivid substrate).
Chain of CYP3A4 (P08684 whole entry): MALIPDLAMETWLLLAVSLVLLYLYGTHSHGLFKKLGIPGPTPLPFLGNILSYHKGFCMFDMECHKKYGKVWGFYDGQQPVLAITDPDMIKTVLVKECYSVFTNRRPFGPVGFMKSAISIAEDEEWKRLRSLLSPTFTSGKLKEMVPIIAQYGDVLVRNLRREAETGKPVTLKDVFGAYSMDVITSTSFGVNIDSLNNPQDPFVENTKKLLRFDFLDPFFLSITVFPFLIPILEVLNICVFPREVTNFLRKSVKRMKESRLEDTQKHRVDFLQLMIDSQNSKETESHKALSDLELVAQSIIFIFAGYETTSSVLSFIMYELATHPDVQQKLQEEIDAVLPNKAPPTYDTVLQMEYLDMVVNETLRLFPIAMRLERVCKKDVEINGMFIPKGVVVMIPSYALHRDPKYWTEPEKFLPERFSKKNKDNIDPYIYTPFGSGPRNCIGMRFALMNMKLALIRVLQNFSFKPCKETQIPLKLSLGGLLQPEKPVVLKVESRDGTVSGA

Take `CN1C(=O)C2(COc3cc4c(cc32)OCCO4)c2c(NS(C)(=O)=O)cccc21` (stereo not shown) [Example 16.22, N-(1′-methyl-2′-oxo-1′,2,2′,3-tetrahydrospiro[furo[2,3-g][1,4]benzodioxine-8,3′-indol]-4′-yl)methanesulfonamide]: the melting point was 184 to 186 °C. Moreover, on CYP3A4, the inhibition at 10 µM was under 50%.

Regarding `CN1C(=O)C2(COc3cc4c(cc32)OCCO4)c2c(NC(=O)C3CCCCC3)cccc21` (stereo not shown) [Example 16.23, N-(1′-methyl-2′-oxo-1′,2,2′,3-tetrahydrospiro[furo[2,3-g][1,4]benzodioxine-8,3′-indol]-4′-yl)cyclohexanecarboxamide], the melting point lay in the range of 96 to 98 °C. In addition, on CYP3A4, the inhibition at 10 µM was under 50%.

The compound `CN1C(=O)C2(COc3cc4c(cc32)OCCO4)c2c(NC(=O)C3CCCC3)cccc21` (stereo not shown) [Example 16.24, N-(1′-methyl-2′-oxo-1′,2,2′,3-tetrahydrospiro[furo[2,3-g][1,4]benzodioxine-8,3′-indol]-4′-yl)cyclopentanecarboxamide] registered a melting point of 196 to 198 °C. Also, the inhibition at 10 µM at CYP3A4 is under 50%.

For `CC(=O)Nc1cccc2c1C1(COc3cc4c(cc31)OCCO4)C(=O)N2C` (stereo not shown) [Example 16.25, N-(1′-methyl-2′-oxo-1′,2,2′,3-tetrahydrospiro[furo[2,3-g][1,4]benzodioxine-8,3′-indol]-4′-yl)acetamide], the melting point is 182 to 184 °C. The inhibition at 10 µM at CYP3A4 is under 50%.

`CN1C(=O)C2(COc3cc4c(cc32)OCCO4)c2c(NC(=O)C3CC3)cccc21` (stereo not shown) [Example 16.26, N-(1′-methyl-2′-oxo-1′,2,2′,3-tetrahydrospiro[furo[2,3-g][1,4]benzodioxine-8,3′-indol]-4′-yl)cyclopropanecarboxamide] displayed a melting point of 266 to 268 °C. For the same compound, the inhibition at 10 µM on CYP3A4 is under 50%.

The compound `CN1C(=O)C2(COc3cc4c(cc32)OCCO4)c2c(NC(=O)c3ccccc3)cccc21` (stereo not shown) [Example 16.27, N-(1′-methyl-2′-oxo-1′,2,2′,3-tetrahydrospiro[furo[2,3-g][1,4]benzodioxine-8,3′-indol]-4′-yl)benzamide] gave a melting point of 192 to 194 °C. Besides, the inhibition at 10 µM at CYP3A4 is over 50%.

The compound `COCC(=O)Nc1cccc2c1C1(COc3cc4c(cc31)OCCO4)C(=O)N2C` (stereo not shown) [Example 16.28, 2-methoxy-N-(1′-methyl-2′-oxo-1′,2,2′,3-tetrahydrospiro[furo[2,3-g][1,4]benzodioxine-8,3′-indol]-4′-yl)acetamide] registered a melting point of 237 to 239 °C. Moreover, the inhibition at 10 µM at CYP3A4 is under 50%.

`CCC(=O)Nc1cccc2c1C1(COc3cc4c(cc31)OCCO4)C(=O)N2C` (stereo not shown) [Example 16.29, N-(1′-methyl-2′-oxo-1′,2,2′,3-tetrahydrospiro[furo[2,3-g][1,4]benzodioxine-8,3′-indol]-4′-yl)propanamide] showed a melting point of 224 to 226 °C. On CYP3A4, the inhibition at 10 µM is under 50%.

`CCCCC(=O)Nc1cccc2c1C1(COc3cc4c(cc31)OCCO4)C(=O)N2C` (stereo not shown) [Example 16.30, N-(1′-methyl-2′-oxo-1′,2,2′,3-tetrahydrospiro[furo[2,3-g][1,4]benzodioxine-8,3′-indol]-4′-yl)pentanamide] returned a melting point of 182 to 183 °C. The inhibition at 10 µM at CYP3A4 is under 50%.

`CN1C(=O)C2(COc3cc4c(cc32)OCCO4)c2c(NC(=O)C(C)(C)C)cccc21` (stereo not shown) [Example 16.31, 2,2-dimethyl-N-(1′-methyl-2′-oxo-1′,2,2′,3-tetrahydrospiro[furo[2,3-g][1,4]benzodioxine-8,3′-indol]-4′-yl)propanamide] returned a melting point of 182 to 184 °C. Also, the inhibition at 10 µM at CYP3A4 was under 50%.

`CCCCCC(=O)Nc1cccc2c1C1(COc3cc4c(cc31)OCCO4)C(=O)N2C` (stereo not shown) [Example 16.32, N-(1′-methyl-2′-oxo-1′,2,2′,3-tetrahydrospiro[furo[2,3-g][1,4]benzodioxine-8,3′-indol]-4′-yl)hexanamide] yielded a melting point of 151 to 153 °C. Besides, at CYP3A4, the inhibition at 10 µM is under 50%.

As for `CCCCCCC(=O)Nc1cccc2c1C1(COc3cc4c(cc31)OCCO4)C(=O)N2C` (stereo not shown) [Example 16.33, N-(1′-methyl-2′-oxo-1′,2,2′,3-tetrahydrospiro[furo[2,3-g][1,4]benzodioxine-8,3′-indol]-4′-yl)heptanamide], the melting point lay in the range of 123 to 124 °C. Moreover, the inhibition at 10 µM at CYP3A4 was over 50%.

For the compound `COCCOCC(=O)Nc1cccc2c1C1(COc3cc4c(cc31)OCCO4)C(=O)N2C` (stereo not shown) [Example 16.34, 2-(2-methoxyethoxy)-N-(1′-methyl-2′-oxo-1′,2,2′,3-tetrahydrospiro[furo[2,3-g][1,4]benzodioxine-8,3′-indol]-4′-yl)acetamide], the melting point fell in the range of 122 to 123 °C. Moreover, at CYP3A4, the inhibition at 10 µM was under 50%.

Take `CCCCCCNC(=O)Nc1cccc2c1C1(COc3cc4c(cc31)OCCO4)C(=O)N2C` (stereo not shown) [Example 16.35, 1-hexyl-3-(1′-methyl-2′-oxo-1′,2,2′,3-tetrahydrospiro[furo[2,3-g][1,4]benzodioxine-8,3′-indol]-4′-yl)urea]: the melting point is 154 to 155 °C. The inhibition at 10 µM at CYP3A4 was over 50%.

As to `CN1C(=O)C2(COc3cc4c(cc32)OCCO4)c2c(NC(=O)NC3CCCC3)cccc21` (stereo not shown) [Example 16.36, 1-cyclopentyl-3-(1′-methyl-2′-oxo-1′,2,2′,3-tetrahydrospiro[furo[2,3-g][1,4]benzodioxine-8,3′-indol]-4′-yl)urea], the melting point was in the range of 133 to 135 °C. For the same compound, the inhibition at 10 µM on CYP3A4 is under 50%.

The compound `CN1C(=O)C2(COc3cc4c(cc32)OCCO4)c2c(NC(=O)NC3CCCCC3)cccc21` (stereo not shown) [Example 16.37, 1-cyclohexyl-3-(1′-methyl-2′-oxo-1′,2,2′,3-tetrahydrospiro[furo[2,3-g][1,4]benzodioxine-8,3′-indol]-4′-yl)urea] registered a melting point of 175 to 177 °C. Further, the inhibition at 10 µM on CYP3A4 is under 50%.

`CN1C(=O)C2(COc3cc4c(cc32)OCCO4)c2c(C(=O)NC3CCCCC3)cccc21` (stereo not shown) [Example 16.38, N-cyclohexyl-1′-methyl-2′-oxo-1′,2,2′,3-tetrahydrospiro[furo[2,3-g][1,4]benzodioxine-8,3′-indole]-4′-carboxamide] yielded a melting point of 139 to 140 °C. In addition, the inhibition at 10 µM on CYP3A4 is under 50%.

In turn, `CN1C(=O)C2(COc3cc4c(cc32)OCCO4)c2c(C(=O)NC3CCCC3)cccc21` (stereo not shown) [Example 16.39, N-cyclopentyl-1′-methyl-2′-oxo-1′,2,2′,3-tetrahydrospiro[furo[2,3-g][1,4]benzodioxine-8,3′-indole]-4′-carboxamide] had a melting point of 135 to 136 °C. For the same compound, the inhibition at 10 µM on CYP3A4 was under 50%.

`CN1C(=O)C2(COc3cc4c(cc32)OCCO4)c2c(C(=O)N3CCCC3)cccc21` (stereo not shown) [Example 16.41, 1′-methyl-4′-(pyrrolidin-1-ylcarbonyl)-2,3-dihydrospiro[furo[2,3-g][1,4]benzodioxine-8,3′-indol]-2′(1′H)-one] registered a melting point of 242 to 244 °C. The inhibition at 10 µM on CYP3A4 was under 50%.

On to `CCCCCNC(=O)c1cccc2c1C1(COc3cc4c(cc31)OCCO4)C(=O)N2C` (stereo not shown) [Example 16.42, 1′-methyl-2′-oxo-N-pentyl-1′,2,2′,3-tetrahydrospiro[furo[2,3-g][1,4]benzodioxine-8,3′-indole]-4′-carboxamide], for which the melting point was 191 to 193 °C. Moreover, at CYP3A4, the inhibition at 10 µM was under 50%.

As usually defined, the melting point is the temperature of the solid-liquid transition. The inhibition is the drop in the measured response relative to a control, in per cent.
